Publication PMC12247020, “A Cyclized Helix‐Loop‐Helix Peptide as a Molecular Scaffold for Cell‐Membrane Permeable Inhibitors for the Interaction Between Estrogen Receptor α and Coactivator SRC1” (Chembiochem, 2025)
Bridge positions count the residues as written; N and C are the ends. Peptide text beside a SMILES is read from it.

Tests used:
[1] = biological target: T1, interaction between ERα/LBD and FL‐SRC1Box2 (Homo sapiens, UniProt P03372); test: FP competition: inhibition of the ERα/LBD–FL‐SRC1Box2 interaction; type: binding; settings: ERα/LBD 20 μM, four parameter logistic equation (Fig S5C)
T1 construct: Recombinant ERα/LBD (ERα^302–552) was prepared as previously reported; made in house; host or cells: Escherichia coli BL21-CodonPlus-RP (ERα LBD); the probe is a synthetic peptide
T1 sequence (P03372 302-552): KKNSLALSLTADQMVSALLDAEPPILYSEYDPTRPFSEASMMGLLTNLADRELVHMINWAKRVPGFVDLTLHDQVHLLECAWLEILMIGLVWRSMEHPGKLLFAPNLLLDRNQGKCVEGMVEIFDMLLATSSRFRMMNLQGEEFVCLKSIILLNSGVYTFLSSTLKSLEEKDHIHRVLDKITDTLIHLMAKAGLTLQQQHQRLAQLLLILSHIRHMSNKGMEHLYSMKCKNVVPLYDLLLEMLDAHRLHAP
Method: The binding activity of cHLH‐ERα was examined by fluorescence polarization (FP) analysis.^[ [26], [29] ^] The cHLH peptides were labeled with tetramethylrhodamine (TMR) to provide the fluorescent cHLH peptide TMR‐cHLH‐ERα, and fluorescent TMR‐YT1‐RS as a negative control (Figure 1, Figure S2, Supporting Information).
4. Fluorescence Polarization
The binding activity of the ERα-LBD was examined with 20 nM FL-SRC1Box2 (CH3CO- […]
C(FL)[…]-NH2; FL: Fluorescein) with 10 µM 17β-estradiol in 20 mM
Tris-HCl (pH 8.0), 25 mM NaCl, 10%(v/v) Glycerol, 1 mM TCEP as described. The concentration of FL-SRC1Box2 labeled with Fluorescein and TMR-cHLH-ERα and YT1-RS were determined from the absorption of Fluorescein or Tetramethylrhodamine. The respective peptide was incubated with ERα-LBD for 30 min in 20 mM Tris-HCl (pH 8.0), 25 mM NaCl with 1 mM 17β-estradiol, and the mixture was transferred into a 384-well microtiter well (Non-binding, Black, greiner bio -one) and the fluorescence polarization was measured on a spectrofluorometer (SpectraMax iD5, Molecular Devices) at 20 °C. The KD values were analyzed via a quadratic binding equation (Fig S5A, S5B) with the data fit to calculate by using KaleidaGraph 4.0 as described elsewhere. The IC50 value was estimated as 7.1 µM derived from four parameter logistic equation (Fig. S 5C). […]

[2] = test system: MCF‐7 breast cancer cells; test: WST‐1 cell viability assay, 17β‐estradiol‐dependent proliferation; type: cell-based; settings: WST‐1 assay, 3.125 to 25 μM peptide, 10 nM 17β‐estradiol, 72 h
Method: Next, we examined the inhibitory activities of the peptides for the 17β‐estradiol‐dependent proliferation of MCF‐7 breast cancer cells using the WST‐1 assay (Figure 2D). The MCF‐7 cells were incubated with the serially diluted peptides cHLH‐ERα or YT1‐RS in the presence of 10 nM 17β‐estradiol.
For cell viability assay,^[ [35] ^] ER‐positive MCF‐7 cancer cells were grown in the recommended media Dulbecco's modified Eagle medium (DMEM) supplemented with 10% heat‐inactivated fetal bovine serum and with 1% penicillin–streptomycin (Gibco) in a humidified environment with 5% CO2. These cells were incubated in 96‐well plates (Corning) at 5,000 cells/well and cultured for 24 h. The cells were treated with 10 nM 17β‐estradiol for 1 h, then a various concentrations of peptides were added. After culturing the cells for 72 h, the proliferation f cells was measured by using WST‐1 reagent (Roche) according to the standard protocols. The absorbance was measured by using a microplate reader (Model 680, Bio‐Rad). Reliability of the cell viability assay was confirmed by using Tamoxifen (nacalai tesque) as a control.

[3] = test system: human ERα and the transcriptional coactivator SRC1; test: Yeast reporter assay (lacZ, β‐galactosidase) for ERα–SRC1 antagonism; type: cell-based; settings: 100 μM peptide, 17β‐estradiol (10 and 100 nM), 18 h, 30 °C
Source text: The expression plasmids for human ERα and the transcriptional coactivator SRC1 were transformed, along with the lacZ reporter plasmid carrying the estrogen response element (RE).^[ [13] ^] The production of ERα and SRC1 was regulated by the galactose‐inducible GAL1‐10 promoter. In response to 17β‐estradiol, ERα, and SRC1 formed a complex on the RE, inducing the ligand‐dependent expression of β‐galactosidase (Figure S8, Supporting Information). The genes encoding the major cell wall mannoproteins Cwp1p and Cwp2p were deleted,^[ [30] ^] probably allowing the cHLH peptides to access the cell membrane by passing through the less dense cell wall of the yeast strain.^[ [32] ^] The effect of the cHLH peptide on the ERα–SRC1 interaction was examined in the presence of 17β‐estradiol (10 and 100 nM).
As previously reported,^[ [30] ^] the yeast strain ERα cwp1Δcwp2Δ was cultured on agar plates with synthetic dextrose (glucose) complete (SDC) dropout medium lacking tryptophan, leucine, and uracil (SDC‐Trp, Leu, Ura; 2% glucose, 2% agar) for single colony isolation. […] Absorbance at wavelengths of 405 and 595 nm was measured using Model 680 Microplate Reader (BioRad Lab., Inc.) to estimate the β‐galactosidase activity as the amount of o‐nitrophenol (ONP) produced and yeast cell density, respectively. The relative β‐galactosidase activity in each well was calculated as A405/A595. […]

IC50 [1]: 7.1 µM
SMILES: CC(C)C[C@@H]1NC(=O)[C@H](C)NC(=O)[C@H](C)NC(=O)[C@H](CC(C)C)NC(=O)[C@H](CCCCN)NC(=O)CNC(=O)CNC(=O)CNC(=O)CNC(=O)CNC(=O)CNC(=O)CNC(=O)[C@H](CCC(=O)O)NC(=O)[C@H](CC(C)C)NC(=O)[C@H](CCCNC(=N)N)NC(=O)[C@H](CCCNC(=N)N)NC(=O)[C@H](CC(C)C)NC(=O)[C@H](CCC(=O)O)NC(=O)[C@H](CCCNC(=N)N)NC(=O)[C@H](CCC(=O)O)NC(=O)[C@H](CC(C)C)NC(=O)[C@H](CCCNC(=N)N)NC(=O)[C@H](CCCNC(=N)N)NC(=O)[C@H](CC(C)C)NC(=O)[C@H](CCC(=O)O)NC(=O)[C@H](CCCNC(=N)N)NC(=O)[C@H](C)NC(=O)CNC(=O)CSC[C@@H](C(N)=O)NC(=O)[C@H](Cc2ccc(O)cc2)NC(=O)[C@H](C)NC(=O)[C@H](CCCCN)NC(=O)[C@H](CC(C)C)NC(=O)[C@H](CC(C)C)NC(=O)[C@H](CC(C)C)NC(=O)[C@H](CC(C)C)NC(=O)[C@H](CCCCN)NC(=O)[C@H](CC(C)C)NC(=O)[C@H](CCCCN)NC1=O [cHLH‐ERα] ({CH2CO}-GARELRRLERELRRLEGGGGGGGKLAALKLKLLLLKAYC-NH2; thioether N-39)
inhibitory activity for the 17β‐estradiol‐dependent proliferation of MCF‐7 cells [2]: inhibited the proliferation of MCF‐7 cells dose‐dependently
inhibition of transcriptional activity (β‐galactosidase) in yeast reporter assay [3]: significantly inhibited transcriptional activity
